Results reported in PMC6688997 (Nature Communications, 2019).

Assays:
Assay in all cases: Kinase assay, 1 mM ATP
Type in all cases: biochemical
PDK1 = PDK1 (Homo sapiens, UniProt O15530)
Method: (§1) An off-chip mobility shift assay was performed by Carna Biosciences, Inc. (Kobe, Japan), according to their product instructions. […] The IC50 values were estimated according to the four-parameter logistic model.

JAK3 = target: T1, JAK3 (Homo sapiens, UniProt P52333)
T1 construct: purchased Carna Biosciences
Method: as §1

p38β = p38β (Homo sapiens, UniProt Q15759)
Method: as §1

IGF1R = target: T2, IGF1R (Homo sapiens, UniProt P08069)
T2 construct: purchased Carna Biosciences
Method: as §1

PKD2 = target: T3, PKD2 (Homo sapiens, UniProt Q9BZL6)
T3 construct: purchased Carna Biosciences
Method: as §1

AurA = AurA (Homo sapiens, UniProt O14965)
Method: as §1

Erk2 = Erk2 (Homo sapiens, UniProt P28482)
Method: as §1

p70S6K = p70S6K (Homo sapiens, UniProt P23443)
Method: as §1

EPHA7 = EPHA7 (Homo sapiens, UniProt Q15375)
Method: as §1

PLK1 = PLK1 (Homo sapiens, UniProt P53350)
Method: as §1

CHK1 = CHK1 (Homo sapiens, UniProt O14757)
Sequence of CHK1 (O14757 whole entry): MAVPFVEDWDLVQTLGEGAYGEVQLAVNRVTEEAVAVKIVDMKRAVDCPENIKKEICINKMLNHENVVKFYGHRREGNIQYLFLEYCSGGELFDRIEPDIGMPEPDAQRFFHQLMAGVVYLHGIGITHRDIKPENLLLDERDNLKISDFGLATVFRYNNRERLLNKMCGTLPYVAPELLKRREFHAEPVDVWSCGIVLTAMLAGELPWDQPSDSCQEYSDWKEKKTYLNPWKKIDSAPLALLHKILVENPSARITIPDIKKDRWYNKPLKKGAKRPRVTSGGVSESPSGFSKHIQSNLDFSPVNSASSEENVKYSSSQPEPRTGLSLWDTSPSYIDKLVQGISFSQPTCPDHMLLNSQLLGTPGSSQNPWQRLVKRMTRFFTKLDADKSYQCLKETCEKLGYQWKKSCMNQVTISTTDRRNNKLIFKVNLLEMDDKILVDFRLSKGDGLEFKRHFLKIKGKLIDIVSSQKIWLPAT
Method: as §1

EPHA8 = target: T4, EPHA8 (Homo sapiens, UniProt P29322)
T4 construct: purchased Carna Biosciences
Method: as §1

CDK2/CycE1 = CDK2/CycE1 (Homo sapiens, UniProt P24941)
Method: as §1

MST1 = MST1 (Homo sapiens, UniProt Q13043)
Method: as §1

CK1ε = CK1ε (Homo sapiens, UniProt P49674)
Method: as §1

CLK1 = CLK1 (Homo sapiens, UniProt P49759)
Method: as §1

AXL = target: T5, AXL (Homo sapiens, UniProt P30530)
T5 construct: purchased Carna Biosciences
Method: as §1

MER = target: T6, MER (Homo sapiens, UniProt Q12866)
T6 construct: purchased Carna Biosciences
T6 sequence (Q12866 21-999): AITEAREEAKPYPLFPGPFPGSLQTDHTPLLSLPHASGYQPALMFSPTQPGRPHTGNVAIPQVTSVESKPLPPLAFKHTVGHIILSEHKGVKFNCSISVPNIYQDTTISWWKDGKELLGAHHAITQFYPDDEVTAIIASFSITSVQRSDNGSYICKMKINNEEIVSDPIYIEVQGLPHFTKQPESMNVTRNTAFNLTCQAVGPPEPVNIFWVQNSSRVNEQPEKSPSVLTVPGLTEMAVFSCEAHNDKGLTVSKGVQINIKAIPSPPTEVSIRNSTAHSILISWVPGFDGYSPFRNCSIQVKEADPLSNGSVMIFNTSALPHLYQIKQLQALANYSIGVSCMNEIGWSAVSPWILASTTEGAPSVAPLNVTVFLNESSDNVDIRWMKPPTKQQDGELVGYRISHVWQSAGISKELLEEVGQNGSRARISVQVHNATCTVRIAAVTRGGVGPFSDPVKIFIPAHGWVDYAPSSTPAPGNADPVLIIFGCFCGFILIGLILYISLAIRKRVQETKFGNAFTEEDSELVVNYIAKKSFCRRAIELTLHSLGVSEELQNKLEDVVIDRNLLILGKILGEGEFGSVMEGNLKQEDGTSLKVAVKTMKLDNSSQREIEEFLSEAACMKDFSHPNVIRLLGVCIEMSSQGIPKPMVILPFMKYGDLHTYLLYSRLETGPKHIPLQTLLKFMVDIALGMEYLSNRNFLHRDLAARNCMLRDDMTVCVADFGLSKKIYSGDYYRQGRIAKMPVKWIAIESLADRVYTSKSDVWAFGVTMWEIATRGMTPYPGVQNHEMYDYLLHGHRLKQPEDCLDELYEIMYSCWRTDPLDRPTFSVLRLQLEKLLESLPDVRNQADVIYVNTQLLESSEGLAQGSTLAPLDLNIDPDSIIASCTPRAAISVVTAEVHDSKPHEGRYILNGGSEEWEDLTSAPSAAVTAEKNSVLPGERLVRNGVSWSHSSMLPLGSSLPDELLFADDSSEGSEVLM
Method: as §1

RON = target: T7, RON (Homo sapiens, UniProt Q04912)
T7 construct: purchased Carna Biosciences
T7 sequence (Q04912 25-1400): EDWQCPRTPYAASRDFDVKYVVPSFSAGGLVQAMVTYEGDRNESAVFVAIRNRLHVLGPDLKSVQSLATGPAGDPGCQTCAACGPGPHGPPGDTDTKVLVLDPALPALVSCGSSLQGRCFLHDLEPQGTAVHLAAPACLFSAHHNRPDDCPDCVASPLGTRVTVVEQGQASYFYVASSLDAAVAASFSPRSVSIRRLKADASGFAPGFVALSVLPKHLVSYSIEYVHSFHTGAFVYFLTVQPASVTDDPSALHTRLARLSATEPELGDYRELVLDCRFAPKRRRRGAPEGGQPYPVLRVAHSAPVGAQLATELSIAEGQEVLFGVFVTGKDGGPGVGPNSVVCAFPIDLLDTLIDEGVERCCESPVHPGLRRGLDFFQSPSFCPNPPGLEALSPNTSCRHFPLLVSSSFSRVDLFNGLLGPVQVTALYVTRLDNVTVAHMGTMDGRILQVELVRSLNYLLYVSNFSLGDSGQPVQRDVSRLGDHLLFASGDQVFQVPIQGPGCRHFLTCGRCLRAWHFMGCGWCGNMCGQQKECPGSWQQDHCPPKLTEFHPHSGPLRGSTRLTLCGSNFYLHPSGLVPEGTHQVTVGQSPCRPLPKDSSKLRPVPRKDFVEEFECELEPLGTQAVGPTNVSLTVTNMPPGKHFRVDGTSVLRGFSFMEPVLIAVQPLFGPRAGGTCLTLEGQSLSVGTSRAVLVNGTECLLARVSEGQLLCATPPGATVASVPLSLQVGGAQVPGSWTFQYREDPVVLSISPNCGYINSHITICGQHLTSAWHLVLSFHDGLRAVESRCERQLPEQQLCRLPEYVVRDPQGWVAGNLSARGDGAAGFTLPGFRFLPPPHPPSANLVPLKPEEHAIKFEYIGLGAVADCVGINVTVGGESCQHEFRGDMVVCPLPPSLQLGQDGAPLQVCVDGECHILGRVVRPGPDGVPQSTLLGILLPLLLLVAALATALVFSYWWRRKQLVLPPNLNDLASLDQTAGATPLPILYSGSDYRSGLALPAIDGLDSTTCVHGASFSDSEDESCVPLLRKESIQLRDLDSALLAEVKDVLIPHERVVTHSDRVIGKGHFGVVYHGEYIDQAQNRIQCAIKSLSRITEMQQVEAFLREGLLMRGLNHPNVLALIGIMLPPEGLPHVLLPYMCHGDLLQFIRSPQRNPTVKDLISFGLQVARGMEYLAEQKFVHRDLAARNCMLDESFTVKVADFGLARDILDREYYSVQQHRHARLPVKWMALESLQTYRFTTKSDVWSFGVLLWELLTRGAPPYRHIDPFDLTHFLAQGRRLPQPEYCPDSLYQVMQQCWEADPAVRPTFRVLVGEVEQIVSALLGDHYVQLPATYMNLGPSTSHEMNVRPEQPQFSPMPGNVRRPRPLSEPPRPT
Method: as §1

CHK2 = target: T8, CHK2 (Homo sapiens, UniProt O96017)
T8 construct: purchased Carna Biosciences
Method: as §1

EGFR(L861Q) = target: T9, EGFR(L861Q) (Homo sapiens, UniProt P00533, L861Q)
T9 construct: purchased Carna Biosciences
Method: as §1

TNK1 = target: T10, TNK1 (Homo sapiens, UniProt Q13470)
T10 construct: purchased Carna Biosciences
Method: as §1

RSK4 = target: T11, RSK4 (Homo sapiens, UniProt Q9UK32)
T11 construct: purchased Carna Biosciences
Method: as §1

INSR = target: T12, INSR (Homo sapiens, UniProt P06213)
T12 construct: purchased Carna Biosciences
Method: as §1

PIM1 = PIM1 (Homo sapiens, UniProt P11309)
Method: as §1

RET(M918T) = target: T13, RET(M918T) (Homo sapiens, UniProt P07949, M918T)
T13 construct: purchased Carna Biosciences
Method: as §1

HER2 = HER2 (Homo sapiens, UniProt P04626)
Method: as §1

RET = target: T14, RET (Homo sapiens, UniProt P07949)
T14 construct: purchased Carna Biosciences
Method: as §1

p38α = p38α (Homo sapiens, UniProt Q16539)
Method: as §1

CK1α = CK1α (Homo sapiens, UniProt P48729)
Method: as §1

FLT1 = target: T15, FLT1 (Homo sapiens, UniProt P17948)
T15 construct: purchased Carna Biosciences
Method: as §1

JNK3 = JNK3 (Homo sapiens, UniProt P53779)
Method: as §1

CDK2/CycA2 = CDK2/CycA2 (Homo sapiens, UniProt P24941)
Method: as §1

CDK3/CycE1 = CDK3/CycE1 (Homo sapiens, UniProt Q00526)
Method: as §1

Erk1 = Erk1 (Homo sapiens, UniProt P27361)
Method: as §1

YES = YES (Homo sapiens, UniProt P07947)
Method: as §1

AKT1 = AKT1 (Homo sapiens, UniProt P31749)
Method: as §1

ABL = ABL (Homo sapiens, UniProt P00519)
Method: as §1

NEK9 = target: T16, NEK9 (Homo sapiens, UniProt Q8TD19)
T16 construct: purchased Carna Biosciences
Method: as §1

JAK1 = target: T17, JAK1 (Homo sapiens, UniProt P23458)
T17 construct: purchased Carna Biosciences
T17 sequence (P23458 whole entry): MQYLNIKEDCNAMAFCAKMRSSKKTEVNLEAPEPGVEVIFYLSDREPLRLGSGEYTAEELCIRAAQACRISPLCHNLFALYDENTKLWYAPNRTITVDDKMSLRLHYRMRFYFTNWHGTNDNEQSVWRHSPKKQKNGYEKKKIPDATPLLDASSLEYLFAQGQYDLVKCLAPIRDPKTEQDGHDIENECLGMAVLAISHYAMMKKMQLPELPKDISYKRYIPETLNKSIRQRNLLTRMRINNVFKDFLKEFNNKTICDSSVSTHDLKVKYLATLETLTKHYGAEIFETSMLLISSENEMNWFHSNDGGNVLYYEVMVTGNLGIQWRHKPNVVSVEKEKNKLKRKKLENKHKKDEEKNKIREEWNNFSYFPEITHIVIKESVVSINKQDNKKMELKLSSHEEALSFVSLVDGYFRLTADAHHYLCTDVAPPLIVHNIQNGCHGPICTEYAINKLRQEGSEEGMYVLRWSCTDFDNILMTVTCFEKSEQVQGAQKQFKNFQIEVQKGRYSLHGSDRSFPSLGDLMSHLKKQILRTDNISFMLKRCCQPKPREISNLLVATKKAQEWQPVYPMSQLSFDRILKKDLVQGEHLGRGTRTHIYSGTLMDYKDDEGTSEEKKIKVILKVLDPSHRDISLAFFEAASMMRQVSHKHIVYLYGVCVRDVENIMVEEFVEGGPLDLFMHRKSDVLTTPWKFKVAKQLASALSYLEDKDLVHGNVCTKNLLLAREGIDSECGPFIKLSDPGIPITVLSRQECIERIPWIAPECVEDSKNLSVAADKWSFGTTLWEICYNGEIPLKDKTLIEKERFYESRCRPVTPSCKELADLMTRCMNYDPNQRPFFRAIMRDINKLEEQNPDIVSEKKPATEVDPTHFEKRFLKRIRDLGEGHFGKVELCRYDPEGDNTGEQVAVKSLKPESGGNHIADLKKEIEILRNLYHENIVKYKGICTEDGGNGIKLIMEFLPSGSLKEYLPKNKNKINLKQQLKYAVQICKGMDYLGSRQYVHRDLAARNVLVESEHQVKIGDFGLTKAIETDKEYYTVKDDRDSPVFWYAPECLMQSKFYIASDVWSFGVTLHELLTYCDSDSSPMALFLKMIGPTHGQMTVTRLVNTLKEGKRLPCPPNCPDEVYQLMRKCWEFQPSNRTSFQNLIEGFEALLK
Method: as §1

EPHA3 = EPHA3 (Homo sapiens, UniProt P29320)
Sequence of EPHA3 (P29320 21-983): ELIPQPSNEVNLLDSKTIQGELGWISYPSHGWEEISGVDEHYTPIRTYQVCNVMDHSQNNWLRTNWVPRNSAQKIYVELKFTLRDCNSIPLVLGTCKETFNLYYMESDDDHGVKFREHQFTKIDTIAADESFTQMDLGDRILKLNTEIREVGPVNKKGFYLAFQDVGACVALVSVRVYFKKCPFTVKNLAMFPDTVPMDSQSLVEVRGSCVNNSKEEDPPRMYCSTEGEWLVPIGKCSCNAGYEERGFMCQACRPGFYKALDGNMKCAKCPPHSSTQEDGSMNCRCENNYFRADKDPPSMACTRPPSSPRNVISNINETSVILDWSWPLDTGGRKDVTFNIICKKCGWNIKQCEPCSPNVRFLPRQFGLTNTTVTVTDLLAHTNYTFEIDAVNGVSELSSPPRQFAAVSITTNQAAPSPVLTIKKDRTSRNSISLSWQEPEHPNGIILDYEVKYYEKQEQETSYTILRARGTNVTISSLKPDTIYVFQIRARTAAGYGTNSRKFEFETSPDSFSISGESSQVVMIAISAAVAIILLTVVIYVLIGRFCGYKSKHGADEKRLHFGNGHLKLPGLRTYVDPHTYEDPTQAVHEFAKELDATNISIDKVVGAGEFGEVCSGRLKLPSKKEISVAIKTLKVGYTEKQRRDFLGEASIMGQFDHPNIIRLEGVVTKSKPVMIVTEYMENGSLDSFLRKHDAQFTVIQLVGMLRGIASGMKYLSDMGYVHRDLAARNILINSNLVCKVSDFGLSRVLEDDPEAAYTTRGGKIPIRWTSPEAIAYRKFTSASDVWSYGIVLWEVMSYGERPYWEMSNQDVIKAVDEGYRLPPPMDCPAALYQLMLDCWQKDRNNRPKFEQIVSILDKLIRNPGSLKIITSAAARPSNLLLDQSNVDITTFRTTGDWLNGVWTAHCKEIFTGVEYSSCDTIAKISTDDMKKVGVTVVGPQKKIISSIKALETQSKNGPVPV
Method: as §1

TIE2 = target: T18, TIE2 (Homo sapiens, UniProt Q02763)
T18 construct: purchased Carna Biosciences
Method: as §1

RET(G691S) = target: T19, RET(G691S) (Homo sapiens, UniProt P07949, G691S)
T19 construct: purchased Carna Biosciences
Method: as §1

Compound: C[C@@H](N)COc1ccc(-c2cnc3ccc(N[C@H](C)c4cccc(F)c4)nn23)cc1.O=C(O)CCCCC(=O)O [DS-6051b]
- inhibition at 0.2 µM (PDK1): -4.9%
- inhibition at 0.2 µM (JAK3): 0.0922%
- inhibition at 0.2 µM (p38β): 0.7%
- inhibition at 0.2 µM (IGF1R): 3.4%
- inhibition at 0.2 µM (PKD2): -17.3%
- inhibition at 0.2 µM (AurA): -15.7%
- inhibition at 0.2 µM (Erk2): -3.8%
- inhibition at 0.2 µM (p70S6K): 8.3%
- inhibition at 0.2 µM (EPHA7): -4.9%
- inhibition at 0.2 µM (PLK1): -9.2%
- inhibition at 0.2 µM (CHK1): -1.2%
- inhibition at 0.2 µM (EPHA8): -9.1%
- inhibition at 0.2 µM (CDK2/CycE1): -20.2%
- inhibition at 0.2 µM (MST1): 11.5%
- inhibition at 0.2 µM (CK1ε): -8.9%
- inhibition at 0.2 µM (CLK1): 2%
- inhibition at 0.2 µM (AXL): 18%
- inhibition at 0.2 µM (MER): 7.1%
- inhibition at 0.2 µM (RON): 9.2%
- inhibition at 0.2 µM (CHK2): 0.3%
- inhibition at 0.2 µM (EGFR(L861Q)): -3.6%
- inhibition at 0.2 µM (TNK1): 12.7%
- inhibition at 0.2 µM (RSK4): -5.4%
- inhibition at 0.2 µM (INSR): 9.4%
- inhibition at 0.2 µM (PIM1): -3.6%
- inhibition at 0.2 µM (RET(M918T)): 0.9%
- inhibition at 0.2 µM (HER2): 8.7%
- inhibition at 0.2 µM (RET): 0.6%
- inhibition at 0.2 µM (p38α): -6.7%
- inhibition at 0.2 µM (CK1α): -1%
- inhibition at 0.2 µM (FLT1): -3.1%
- inhibition at 0.2 µM (JNK3): 0.655%
- inhibition at 0.2 µM (CDK2/CycA2): 2.3%
- inhibition at 0.2 µM (CDK3/CycE1): -1.2%
- inhibition at 0.2 µM (Erk1): -4.9%
- inhibition at 0.2 µM (YES): 9%
- inhibition at 0.2 µM (AKT1): -1.3%
- inhibition at 0.2 µM (ABL): -1.1%
- inhibition at 0.2 µM (NEK9): -3.5%
- inhibition at 0.2 µM (JAK1): -2%
- inhibition at 0.2 µM (EPHA3): 2.8%
- inhibition at 0.2 µM (TIE2): -2.2%
- inhibition at 0.2 µM (RET(G691S)): -0.256%
